Source: US20230143612A1 (Arbutus Biopharma Corporation, priority 2020, published 2023)

Target: PD-L1 His protein / PD-1 Fc protein (Homo sapiens, UniProt Q9NZQ7)
Test: HTRF Assay (PD-1/PD-L1 interaction)
Assay type: binding
Settings: PD-L1 His 6 nM, PD-1 Fc 6 nM
Outline: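 HTRF: PD-L1 His (6 nM final), compound (3-fold dilutions, 20 μM to 0.001 μM final) and PD-1 Fc (6 nM final) preincubated 15 min at room temperature. Anti-human IgG-XL665 and anti-6HIS Tb cryptate (mixed at 6.7 nM and 0.35 nM) then added for 1 h at room temperature before reading.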

PD-L1 His protein / PD-1 Fc protein, sequence (Q9NZQ7 19-238 limits assumed): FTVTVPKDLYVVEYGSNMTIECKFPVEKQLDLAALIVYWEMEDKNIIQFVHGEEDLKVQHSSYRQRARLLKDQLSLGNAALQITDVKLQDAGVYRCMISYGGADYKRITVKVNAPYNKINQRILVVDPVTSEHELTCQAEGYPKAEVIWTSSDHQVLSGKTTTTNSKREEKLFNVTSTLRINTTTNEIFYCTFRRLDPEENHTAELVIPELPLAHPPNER

## COc1nc(-c2cccc(-c3cccc(-c4cc5c(=O)n(C)c(CNCCCF)nn5c4)c3Cl)c2Cl)ccc1CNC[C@@H]1CCC(=O)N1 [Example 437, (S)-6-(2,2′-Dichloro-3′-(6-methoxy-5-((((5-oxopyrrolidin-2-yl)methyl)amino)methyl)pyridin-2-yl)-[1,1′-biphenyl]-3-yl)-2-(((3-fluoropropyl)amino)methyl)-3-methylpyrrolo[2,1-f][1,2,4]triazin-4(3H)-one]
  IC50: 52 nM

## COc1nc(-c2cccc(-c3cccc(-c4ccc5nc(C(=O)NCCN)cn5n4)c3Cl)c2Cl)ccc1CNC[C@@H]1CCC(=O)N1 [Example 438, N-(2-Aminoethyl)-6-[2-chloro-3-[2-chloro-3-[6-methoxy-5-[[[(2S)-5-oxopyrrolidin-2-yl]methylamino]methyl]-2-pyridyl]phenyl]phenyl]imidazo[1,2-b]pyridazine-2-carboxamide]
  IC50: 14 nM

## COc1nc(-c2cccc(-c3cccc(-c4ccc5nc(C(=O)NC[C@H](C)N)cn5n4)c3Cl)c2Cl)ccc1CNC[C@@H]1CCC(=O)N1 [Example 439, N-[(2S)-2-Aminopropyl]-6-[2-chloro-3-[2-chloro-3-[6-methoxy-5-[[[(2S)-5-oxopyrrolidin-2-yl]methylamino]methyl]-2-pyridyl]phenyl]phenyl]imidazo[1,2-b]pyridazine-2-carboxamide]
  IC50: 20 nM

## COc1nc(-c2cccc(-c3cccc(-c4ccc5nc(C(=O)NCCc6c[nH]cn6)cn5n4)c3Cl)c2Cl)ccc1CNC[C@@H]1CCC(=O)N1 [Example 440, 6-[2-Chloro-3-[2-chloro-3-[6-methoxy-5-[[[(2S)-5-oxopyrrolidin-2-yl]methylamino]methyl]-2-pyridyl]phenyl]phenyl]-N-[2-(1H-imidazol-4-yl)ethyl]imidazo[1,2-b]pyridazine-2-carboxamide]
  IC50: 27 nM

## COc1nc(-c2cccc(-c3cccc(-c4ncc5c(n4)CCN(C[C@@H]4CCC(=O)N4)C5)c3Cl)c2Cl)ccc1CNC[C@@H]1CCC(=O)N1 [Example 443, (S)-5-((((6-(2,2′-Dichloro-3′-(6-(((S)-5-oxopyrrolidin-2-yl)methyl)-5,6,7,8-tetrahydropyrido[4,3-d]pyrimidin-2-yl)-[1,1′-biphenyl]-3-yl)-2-methoxypyridin-3-yl)methyl)amino)methyl)pyrrolidin-2-one]
  IC50: 0.1 nM

## COc1nc(-c2cccc(-c3cccc(-c4ccc5c(CNC[C@@H]6CCCO6)cn(C)c5n4)c3Cl)c2Cl)ccc1CNC[C@@H]1CCC(=O)N1 [Example 444, (5S)-5-[[[6-[2-Chloro-3-[2-chloro-3-[1-methyl-3-[[[(2S)-tetrahydrofuran-2-yl]methylamino]methyl]pyrrolo[2,3-b]pyridin-6-yl]phenyl]phenyl]-2-methoxy-3-pyridyl]methylamino]methyl]pyrrolidin-2-one]
  IC50: 920 nM

## COc1nc(-c2cccc(-c3cccc(-c4ccc5c(CNC[C@H](C)OC)cn(C)c5n4)c3Cl)c2Cl)ccc1CNC[C@@H]1CCC(=O)N1 [Example 445, (5S)-5-[[[6-[2-Chloro-3-[2-chloro-3-[3-[[[(2S)-2-methoxypropyl]amino]methyl]-1-methyl-pyrrolo[2,3-b]pyridin-6-yl]phenyl]phenyl]-2-methoxy-3-pyridyl]methylamino]methyl]pyrrolidin-2-one]
  IC50: 460 nM

## COc1nc(-c2cccc(-c3cccc(-c4cc5c(=O)n(C)c(CNC6CC7(COC7)C6)nn5c4)c3Cl)c2Cl)ccc1CNC[C@@H]1CCC(=O)N1 [Example 446, 6-[2-Chloro-3-[2-chloro-3-[6-methoxy-5-[[[(2S)-5-oxopyrrolidin-2-yl]methylamino]methyl]-2-pyridyl]phenyl]phenyl]-3-methyl-2-[(2-oxaspiro[3.3]heptan-6-ylamino)methyl] pyrrolo[2,1-f][1,2,4]triazin-4-one]
  IC50: 160 nM

## COc1nc(-c2cccc(-c3cccc(-c4cc5c(=O)n(C)c(CN6CC7(COC7)C6)nn5c4)c3Cl)c2Cl)ccc1CNC[C@@H]1CCC(=O)N1 [Example 447, 6-[2-Chloro-3-[2-chloro-3-[6-methoxy-5-[[[(2S)-5-oxopyrrolidin-2-yl]methylamino]methyl]-2-pyridyl]phenyl]phenyl]-3-methyl-2-(2-oxa-6-azaspiro[3.3]heptan-6-ylmethyl)pyrrolo[2,1-f][1,2,4]triazin-4-one]
  IC50: 5 nM

## COc1nc(-c2cccc(-c3cccc(-c4cc5c(=O)n(C)c(CN6CC7(CCC(=O)N7)C6)nn5c4)c3Cl)c2Cl)ccc1CNC[C@@H]1CCC(=O)N1 [Example 448, 6-[2-Chloro-3-[2-chloro-3-[6-methoxy-5-[[[(2S)-5-oxopyrrolidin-2-yl]methylamino]methyl]-2-pyridyl]phenyl]phenyl]-3-methyl-2-[(6-oxo-2,5-diazaspiro[3.4]octan-2-yl)methyl]pyrrolo [2,1-f][1,2,4]triazin-4-one]
  IC50: 6.8 nM

## COc1nc(-c2cccc(-c3cccc(-c4cc5c(=O)n(C)c(CNC6CC7(CCC(=O)N7)C6)nn5c4)c3Cl)c2Cl)ccc1CNC[C@@H]1CCC(=O)N1 (stereo partly drawn) [Example 449, 6-[2-Chloro-3-[2-chloro-3-[6-methoxy-5-[[[(2S)-5-oxopyrrolidin-2-yl]methylamino]methyl]-2-pyridyl]phenyl]phenyl]-3-methyl-2-[[(6-oxo-5-azaspiro[3.4]octan-2-yl)amino]methyl] pyrrolo[2,1-f][1,2,4]triazin-4-one]
  IC50: 450 nM

## COc1nc(-c2cccc(-c3cccc(-c4cc5c(=O)n(C)c(CNCCC6CCC(=O)N6)nn5c4)c3Cl)c2Cl)ccc1CNC[C@@H]1CCC(=O)N1 (stereo partly drawn) [Example 451, 6-[2-Chloro-3-[2-chloro-3-[6-methoxy-5-[[[(2S)-5-oxopyrrolidin-2-yl]methylamino]methyl]-2-pyridyl]phenyl]phenyl]-3-methyl-2-[[2-(5-oxopyrrolidin-2-yl)ethylamino]methyl]pyrrolo [2,1-f][1,2,4]triazin-4-one]
  IC50: 200 nM

## COc1nc(-c2cccc(-c3cccc(-c4ccc5c(CNC[C@@H]6CCC(=O)N6)cn(C)c5c4)c3Cl)c2Cl)ccc1CNC[C@@H]1CCC(=O)N1 [Example 452, (5S)-5-[[[6-[2-Chloro-3-[2-chloro-3-[1-methyl-3-[[[(2S)-5-oxopyrrolidin-2-yl]methylamino]methyl]indol-6-yl]phenyl]phenyl]-2-methoxy-3-pyridyl]methylamino]methyl]pyrrolidin-2-one]
  IC50: 68 nM

## Cn1cc(CNC[C@@H]2CCC(=O)N2)c2ccc(-c3cccc(-c4cccc(-c5ccn6c(=O)c(CNC[C@@H]7CCC(=O)N7)cnc6c5)c4Cl)c3Cl)cc21 [Example 453, 8-[2-Chloro-3-[2-chloro-3-[1-methyl-3-[[[(2S)-5-oxopyrrolidin-2-yl]methylamino]methyl]indol-6-yl]phenyl]phenyl]-3-[[[(2S)-5-oxopyrrolidin-2-yl]methylamino]methyl]pyrido[1,2-a]pyrimidin-4-one]
  IC50: 1200 nM

## COc1nc(-c2cccc(-c3cccc(-c4cc5c(cn4)CN(CCNC[C@@H]4CCC(=O)N4)C5=O)c3Cl)c2Cl)ccc1CNC[C@@H]1CCC(=O)N1 [Example 454, 6-(2,2′-dichloro-3′-(6-methoxy-5-(((((S)-5-oxopyrrolidin-2-yl)methyl)amino)methyl)pyridin-2-yl)-[1,1′-biphenyl]-3-yl)-2-(2-((((S)-5-oxopyrrolidin-2-yl)methyl)amino)ethyl)-2,3-dihydro-1H-pyrrolo[3,4-c]pyridin-1-one]
  IC50: 0.1 nM
